Data on 25 molecules can be found in patent US20240132431A1, “METHOD FOR ALKYLATING ACIDIC FUNCTIONAL GROUP” (Chugai Seiyaku Kabushiki Kaisha, priority 2021, published 2024).

In the experiment the target is T1, Bcl-2 protein (Recombinant Human Bcl-2 Protein) (Homo sapiens, UniProt P10415).
T1 construct: purchased Novus NBP2-34889
As to the kind of experiment: Binding evaluation of mixture library compounds to Bcl-2 using AS-MS (affinity selection mass spectrometry). The following applies: for ASMS ratio (%) n = 1 / ASMS ratio (%) n = 2: ASMS Ratio(%)=(A−C)/B×100; for ASMS ratio (%) n = 1: replicate n = 1; for ASMS ratio (%) n = 2: replicate n = 2. Summed up:
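Affinity selection MS: Bcl-2 20 μM + 1200-cpd mixture, […]/cpd, Tris pH 7.4 buffer w/ Tween-20, DTT; 1 h 23° C dark; P-2 spin SEC; MeCN/MeOH extraction; RP LC/MS. ASMS Ratio(%) = (A−C)/B×100.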

Setting [1] is: AS-MS on the mixture of 1200 library compounds.
Setting [2] is: AS-MS, mixture of 1200 compounds, Bcl-2.

T1 sequence (P10415 whole entry): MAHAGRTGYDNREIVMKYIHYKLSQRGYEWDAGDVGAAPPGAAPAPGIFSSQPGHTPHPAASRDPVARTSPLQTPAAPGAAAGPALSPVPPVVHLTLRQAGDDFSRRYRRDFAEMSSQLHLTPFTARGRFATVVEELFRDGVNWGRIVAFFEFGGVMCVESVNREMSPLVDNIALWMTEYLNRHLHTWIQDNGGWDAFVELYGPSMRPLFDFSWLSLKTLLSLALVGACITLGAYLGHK

With `CCOc1cccc(-c2ccc(C(=O)N3CCN(c4ccc(C(=O)N(C)CC56CC7CC(CC(C7)C5)C6)cc4)CC3)c3ccccc23)c1` [B3A035-01, N-(1-Adamantylmethyl)-4-[4-[4-(3-ethoxyphenyl)naphthalene-1-carbonyl]piperazin-1-yl]-N-methylbenzamide], under setting [1], the “ASMS ratio (%) n = 1” value was 9.7% and the “ASMS ratio (%) n = 2” value is 4.4%. As to “6-[4-[[4-(5-Ethoxypyridin-3-yl)thiophen-2-yl]methyl]piperazin-1-yl]-N-propylpyridazine-3-carboxamide [B1M051-01]”, under setting [2], the “ASMS ratio (%) n = 1” value turned out to be 0.7% and the “ASMS ratio (%) n = 2” value came to 1.9%. For the molecule `CCOc1cccc(-c2cc(CN3CCN(c4ccc(C(=O)NS(=O)(=O)c5ccc(NCCSc6ccccc6)c([N+](=O)[O-])c5)cc4)CC3)cc(C(F)(F)F)c2)c1` [B2Q061-01, 4-[4-[[3-(3-Ethoxyphenyl)-5-(trifluoromethyl)phenyl]methyl]piperazin-1-yl]-N-[3-nitro-4-(2-phenylsulfanylethylamino)phenyl]sulfonylbenzamide], where the note is “AS-MS, mixture library, Bcl-2”, the “ASMS ratio (%) n = 1” value came to 15.6% and the “ASMS ratio (%) n = 2” value was −17.9%.

`CCOc1cccc(-c2cc(CN3CCN(c4ccc(C(=O)NS(=O)(=O)CCC(F)(F)F)cc4)CC3)cc(OCC)c2)c1` [B2N055-01, 4-[4-[[3-Ethoxy-5-(3-ethoxyphenyl)phenyl]methyl]piperazin-1-yl]-N-(3,3,3-trifluoropropylsulfonyl)benzamide]: the “ASMS ratio (%)” value (n = 1) is reported as 0.0% and the “ASMS ratio (%)” value (n = 2) was 0.0%. In the case of `CCOc1cncc(-c2cc(OC)c(CN3CCN(c4ccc(C(=O)NCC(F)(F)F)cc4)CC3)c(OC)c2)c1` [B1K060-01], under setting [2], the “ASMS ratio (%) n = 1” value was 0.0% and the “ASMS ratio (%) n = 2” value turned out to be 0.0%. `CCOc1cccc(C#Cc2ccccc2CN2CCN(c3ccc(C(=O)NCC45CC6CC(CC(C6)C4)C5)cc3)CC2)c1` [B1A069-01, N-(1-Adamantylmethyl)-4-[4-[[2-[2-(3-ethoxyphenyl)ethynyl]phenyl]methyl]piperazin-1-yl]benzamide]: under setting [2], the “ASMS ratio (%) n = 1” value is 8.3% and the “ASMS ratio (%) n = 2” value is 0.8%. Taken in the same sequence, the figures for `CCOc1cccc(-c2ccccc2CCC(=O)N2CCN(c3ccc(C(=O)NCC(F)(F)F)cc3)CC2)c1` [B1K033-01, 4-[4-[3-[2-(3-Ethoxyphenyl)phenyl]propanoyl]piperazin-1-yl]-N-(2,2,2-trifluoroethyl)benzamide] were 2.3% and −0.6%. Regarding `CCOc1cncc(C#Cc2cc(C(=O)N3CCN(c4ccc(C(=O)NS(=O)(=O)CCC(F)(F)F)cc4)CC3)cc(C(F)(F)F)c2)c1` [B2N042-01, 4-[4-[3-[2-(5-Ethoxypyridin-3-yl)ethynyl]-5-(trifluoromethyl)benzoyl]piperazin-1-yl]-N-(3,3,3-trifluoropropylsulfonyl)benzamide], the “ASMS ratio (%)” value (n = 1) is 0.0% and the “ASMS ratio (%)” value (n = 2) was 0.0%. Consider `CCOc1cncc(-c2cc(C(=O)N3CCN(c4ccc(C(=O)N(C)CC56CC7CC(CC(C7)C5)C6)nn4)CC3)cc(C(F)(F)F)c2)c1` [B3A018-01, N-(1-Adamantylmethyl)-6-[4-[3-(5-ethoxypyridin-3-yl)-5-(trifluoromethyl)benzoyl]piperazin-1-yl]-N-methylpyridazine-3-carboxamide], for which, under setting [1], the “ASMS ratio (%) n = 1” value was determined as 5.0% and the “ASMS ratio (%) n = 2” value was determined as 1.8%. Regarding `CCOc1cncc(-c2cc(C(=O)N3CCN(c4ccc(C(=O)NS(=O)(=O)c5ccc(NCCSc6ccccc6)c([N+](=O)[O-])c5)nn4)CC3)cc(C(C)(C)C)c2)c1` [B2Q016-01, 6-[4-[3-tert-Butyl-5-(5-ethoxypyridin-3-yl)benzoyl]piperazin-1-yl]-N-[3-nitro-4-(2-phenylsulfanylethylamino)phenyl]sulfonylpyridazine-3-carboxamide], where the note is “AS-MS, mixture library, Bcl-2”, the “ASMS ratio (%) n = 1” value stood at 10.6% and the “ASMS ratio (%) n = 2” value came out at 6.5%. On to `CCOc1cncc(-c2ccc(C(=O)N3CCN(c4ccc(C(=O)NS(=O)(=O)C(C)(C)C)cc4)CC3)cc2C)c1` [B2L026-01, N-tert-Butylsulfonyl-4-[4-[4-(5-ethoxypyridin-3-yl)-3-methylbenzoyl]piperazin-1-yl]benzamide], for which the “ASMS ratio (%)” value is, setting by setting: (n = 1) 0.0%; (n = 2) 0.0%. On to `CCOc1cccc(-c2ccc(C(C)N3CCN(c4ccc(C(=O)NS(C)(=O)=O)cc4)CC3)cc2)c1` (stereo not drawn) [B2I097-01, 4-[4-[1-[4-(3-Ethoxyphenyl)phenyl]ethyl]piperazin-1-yl]-N-methylsulfonylbenzamide], for which the “ASMS ratio (%)” value reads like this: (n = 1) 0.8%; (n = 2) 1.4%. Taken in the same sequence, the figures for `CCOc1cncc(-c2ccccc2CN2CCN(c3ccc(C(=O)NS(=O)(=O)C(C)(C)C)nn3)CC2)c1` [B2L072-01, N-tert-Butylsulfonyl-6-[4-[[2-(5-ethoxypyridin-3-yl)phenyl]methyl]piperazin-1-yl]pyridazine-3-carboxamide] were −10.7% and 8.3%. Regarding `CCOc1cncc(-c2ccc(C(=O)N3CCN(c4ccc(C(=O)NS(C)(=O)=O)nn4)CC3)cc2C)c1` [B2I004-01, 6-[4-[4-(5-Ethoxypyridin-3-yl)-3-methylbenzoyl]piperazin-1-yl]-N-methylsulfonylpyridazine-3-carboxamide], where the note is “AS-MS, mixture library, Bcl-2”, the “ASMS ratio (%) n = 1” value amounted to 0.9% and the “ASMS ratio (%) n = 2” value is recorded as −0.3%. Turning to “6-[4-[3-(3-Ethoxyphenyl)-5-(trifluoromethyl)benzoyl]piperazin-1-yl]-N-propylpyridazine-3-carboxamide [B1M089-01]”, under setting [1], the “ASMS ratio (%) n = 1” value is 3.9% and the “ASMS ratio (%) n = 2” value is recorded as 0.2%. As for `CCOc1cccc(-c2ccccc2CCC(=O)N2CCN(c3ccc(C(=O)NS(=O)(=O)c4ccc(NCCSc5ccccc5)c([N+](=O)[O-])c4)cc3)CC2)c1` [B2Q033-01, 4-[4-[3-[2-(3-Ethoxyphenyl)phenyl]propanoyl]piperazin-1-yl]-N-[3-nitro-4-(2-phenylsulfanylethylamino)phenyl]sulfonylbenzamide], for the setting “AS-MS, mixture library, Bcl-2”, the “ASMS ratio (%) n = 1” value was 4.2% and the “ASMS ratio (%) n = 2” value is recorded as −2.3%.

On to `CCOc1cncc(-c2csc(C(=O)N3CCN(c4ccc(C(=O)NS(C)(=O)=O)nn4)CC3)c2)c1` [B2I002-01, 6-[4-[4-(5-Ethoxypyridin-3-yl)thiophene-2-carbonyl]piperazin-1-yl]-N-methylsulfonylpyridazine-3-carboxamide], for which, under “AS-MS, mixture library, Bcl-2”, the “ASMS ratio (%) n = 1” value worked out at 0.0% and the “ASMS ratio (%) n = 2” value was found to be 0.0%. On to `CCOc1cccc(C#Cc2ccccc2CN2CCN(c3ccc(C(=O)N(C)CC45CC6CC(CC(C6)C4)C5)cc3)CC2)c1` [B3A069-01, N-(1-Adamantylmethyl)-4-[4-[[2-[2-(3-ethoxyphenyl)ethynyl]phenyl]methyl]piperazin-1-yl]-N-methylbenzamide], for which the “ASMS ratio (%) n = 2” value under setting [1] was 12872.1%. For the molecule `CCOc1cncc(-c2ccc(CN3CCN(c4ccc(C(=O)NS(=O)(=O)C(C)(C)C)nn4)CC3)cc2F)c1` [B2L078-01], the “ASMS ratio (%)” value runs as follows: (n = 1) 1.1%; (n = 2) −0.7%. Regarding `CCOc1cncc(-c2ccc(CN3CCN(c4ccc(C(=O)NCC(F)(F)F)cc4)CC3)cc2F)c1` [B1K052-01, 4-[4-[[4-(5-Ethoxypyridin-3-yl)-3-fluorophenyl]methyl]piperazin-1-yl]-N-(2,2,2-trifluoroethyl)benzamide], under setting [2], the “ASMS ratio (%) n = 1” value is given as −3.3% and the “ASMS ratio (%) n = 2” value amounted to 0.5%. As for `CCOc1cncc(-c2ccc(C(=O)N3CCN(c4ccc(C(=O)NS(=O)(=O)C(C)(C)C)nn4)CC3)cc2F)c1` [B2L006-01, N-tert-Butylsulfonyl-6-[4-[4-(5-ethoxypyridin-3-yl)-3-fluorobenzoyl]piperazin-1-yl]pyridazine-3-carboxamide], the “ASMS ratio (%)” value is, setting by setting: (n = 1) 0.0%; (n = 2) 0.0%. With `CCOc1cccc(-c2ccc(CN3CCN(c4ccc(C(=O)N(C)CC56CC7CC(CC(C7)C5)C6)nn4)CC3)c3ccccc23)c1` [B3A091-01, N-(1-Adamantylmethyl)-6-[4-[[4-(3-ethoxyphenyl)naphthalen-1-yl]methyl]piperazin-1-yl]-N-methylpyridazine-3-carboxamide], under setting [1], the “ASMS ratio (%) n = 1” value is −1.0% and the “ASMS ratio (%) n = 2” value is −16.5%. As for `CCOc1cccc(-c2ccc(C(C)N3CCN(c4ccc(C(=O)NS(C)(=O)=O)cc4)CC3)c(F)c2)c1` (stereo not drawn) [B2I099-01, 4-[4-[1-[4-(3-Ethoxyphenyl)-2-fluorophenyl]ethyl]piperazin-1-yl]-N-methylsulfonylbenzamide], the “ASMS ratio (%)” value (n = 2) was determined as 0.0%. For `CCOc1cncc(-c2csc(C(=O)N3CCN(c4ccc(C(=O)NS(=O)(=O)C(C)(C)C)nn4)CC3)c2)c1` [B2L002-01, N-tert-Butylsulfonyl-6-[4-[4-(5-ethoxypyridin-3-yl)thiophene-2-carbonyl]piperazin-1-yl]pyridazine-3-carboxamide], the “ASMS ratio (%)” value (n = 1) was determined as 0.0% and the “ASMS ratio (%)” value (n = 2) is 0.0%.

Regarding `CCOc1cncc(-c2cnn(-c3cc(C(=O)N4CCN(c5ccc(C(=O)N(C)CC67CC8CC(CC(C8)C6)C7)nn5)CC4)cc(C(F)(F)F)c3)c2)c1` [B3A022-01, N-(1-Adamantylmethyl)-6-[4-[3-[4-(5-ethoxypyridin-3-yl)pyrazol-1-yl]-5-(trifluoromethyl)benzoyl]piperazin-1-yl]-N-methylpyridazine-3-carboxamide], under setting [1], the “ASMS ratio (%) n = 1” value was determined as 4.9% and the “ASMS ratio (%) n = 2” value was 7.2%.
